Test results taken from ChEMBL document CHEMBL3885861, “Open TG-GATES”.

Species: Rattus norvegicus
Experiment: Open TG-GATES - Regimen: Single
Type: toxicity, organism-based, Sprague-Dawley
Design: regimen Single, gender Male, age 6 weeks
Conditions: in vivo, po, 0 mg/kg, route gavage, dose level Control; for APTT / Bas / Eos / Fbg / Hb / Ht / Lym / MCH / MCHC / MCV / Mono / Neu / PT / Plat / RBC / Ret / WBC: tissue Blood; for KIDNEY_L / KIDNEY_R / KIDNEY_TOTAL: tissue Kidney; for LIVER: tissue Liver; for A/G / ALP / ALT / AST / BUN / CRE / Ca / Cl / DBIL / GLC / IP / K / LDH / Na / PL / RALB / TBIL / TC / TG / TP / gamma-GTP: tissue Plasma

## CCN(CC)N=O [N-NITROSODIETHYLAMINE]
3 h
  TERMINAL_BW: 221 g
  APTT: 19.6 s
  Bas: 0.4%
  Eos: 1%
  Fbg: 223 mg/dL
  Hb: 13.7 g/dL
  Ht: 40%
  Lym: 77.8%
  MCH: 21.5 pg
  MCHC: 34.1%
  MCV: 63 fL
  Mono: 2.2%
  Neu: 18%
  PT: 12 s
  Plat: 127.6 x10_4/uL
  RBC: 635.6 x10_4/ul
  Ret: 7.2%
  WBC: 66.1 x10_2/uL
  KIDNEY_L: 1 g
  KIDNEY_R: 0.9 g
  KIDNEY_TOTAL: 1.9 g
  LIVER: 9.5 g
  A/G: 1.6
  ALP: 1051 IU/L
  ALT: 37.4 IU/L
  AST: 68.4 IU/L
  BUN: 10 mg/dL
  CRE: 0.4 mg/dL
  Ca: 10.3 mg/dL
  Cl: 102 meq/L
  DBIL: 0.07 mg/dL
  GLC: 194.2 mg/dL
  IP: 9 mg/dL
  K: 3.5 meq/L
  LDH: 169.8 IU/L
  Na: 140.8 meq/L
  PL: 132.8 mg/dL
  RALB: 3.4 g/dL
  TBIL: 0.1 mg/dL
  TC: 79.4 mg/dL
  TG: 42.4 mg/dL
  TP: 5.5 g/dL
  gamma-GTP: 1 IU/L
6 h
  TERMINAL_BW: 223.5 g
  APTT: 20.6 s
  Bas: 0.2%
  Eos: 1%
  Fbg: 218 mg/dL
  Hb: 13.5 g/dL
  Ht: 39.5%
  Lym: 79.6%
  MCH: 21.4 pg
  MCHC: 34.3%
  MCV: 62.5 fL
  Mono: 2.4%
  Neu: 16%
  PT: 12 s
  Plat: 130.4 x10_4/uL
  RBC: 631.8 x10_4/ul
  Ret: 6.9%
  WBC: 81.9 x10_2/uL
  KIDNEY_L: 1 g
  KIDNEY_R: 1 g
  KIDNEY_TOTAL: 2 g
  LIVER: 9.9 g
  A/G: 1.6
  ALP: 946.2 IU/L
  ALT: 34.2 IU/L
  AST: 72.4 IU/L
  BUN: 13.6 mg/dL
  CRE: 0.4 mg/dL
  Ca: 10.3 mg/dL
  Cl: 102.8 meq/L
  DBIL: 0.076 mg/dL
  GLC: 201.2 mg/dL
  IP: 7.8 mg/dL
  K: 3.6 meq/L
  LDH: 193 IU/L
  Na: 140.8 meq/L
  PL: 141.6 mg/dL
  RALB: 3.4 g/dL
  TBIL: 0.1 mg/dL
  TC: 82.2 mg/dL
  TG: 54.4 mg/dL
  TP: 5.5 g/dL
  gamma-GTP: 1.4 IU/L
9 h
  TERMINAL_BW: 228.4 g
  APTT: 18.5 s
  Bas: 0.8%
  Eos: 1.2%
  Fbg: 230.8 mg/dL
  Hb: 13.7 g/dL
  Ht: 39.7%
  Lym: 75.4%
  MCH: 21.6 pg
  MCHC: 34.5%
  MCV: 62.5 fL
  Mono: 2.6%
  Neu: 19.2%
  PT: 12 s
  Plat: 125.1 x10_4/uL
  RBC: 636 x10_4/ul
  Ret: 7.1%
  WBC: 92.6 x10_2/uL
  KIDNEY_L: 1 g
  KIDNEY_R: 1 g
  KIDNEY_TOTAL: 1.9 g
  LIVER: 10.1 g
  A/G: 1.6
  ALP: 875.4 IU/L
  ALT: 37.8 IU/L
  AST: 69 IU/L
  BUN: 13.8 mg/dL
  CRE: 0.4 mg/dL
  Ca: 10.4 mg/dL
  Cl: 103 meq/L
  DBIL: 0.08 mg/dL
  GLC: 206.4 mg/dL
  IP: 8 mg/dL
  K: 3.8 meq/L
  LDH: 196.4 IU/L
  Na: 140.6 meq/L
  PL: 141.6 mg/dL
  RALB: 3.4 g/dL
  TBIL: 0.1 mg/dL
  TC: 84.2 mg/dL
  TG: 56.8 mg/dL
  TP: 5.6 g/dL
  gamma-GTP: 1.4 IU/L
24 h
  TERMINAL_BW: 229.8 g
  APTT: 18.9 s
  Bas: 0%
  Eos: 1.2%
  Fbg: 226.2 mg/dL
  Hb: 13.5 g/dL
  Ht: 39.6%
  Lym: 82.6%
  MCH: 21.5 pg
  MCHC: 34.1%
  MCV: 63.2 fL
  Mono: 1.8%
  Neu: 13.8%
  PT: 11.7 s
  Plat: 128.8 x10_4/uL
  RBC: 627.2 x10_4/ul
  Ret: 6.6%
  WBC: 85.1 x10_2/uL
  KIDNEY_L: 1.1 g
  KIDNEY_R: 1 g
  KIDNEY_TOTAL: 2.1 g
  LIVER: 10.2 g
  A/G: 1.6
  ALP: 1035 IU/L
  ALT: 37.8 IU/L
  AST: 63.6 IU/L
  BUN: 14 mg/dL
  CRE: 0.4 mg/dL
  Ca: 10.5 mg/dL
  Cl: 103.6 meq/L
  DBIL: 0.07 mg/dL
  GLC: 208 mg/dL
  IP: 9.5 mg/dL
  K: 3.7 meq/L
  LDH: 190.6 IU/L
  Na: 141 meq/L
  PL: 150.6 mg/dL
  RALB: 3.3 g/dL
  TBIL: 0.1 mg/dL
  TC: 86.6 mg/dL
  TG: 57.8 mg/dL
  TP: 5.4 g/dL
  gamma-GTP: 1 IU/L
